This is an account of results in patent US20250136606A1, “MODULATORS OF TRPML, THEIR COMPOSITIONS AND METHODS OF USE” (Caraway Therapeutics, Inc., priority 2021, published 2025).

Assay type in all cases: cell-based
Common to all, as to conditions: fluorescent calcium assay

One assay addresses T1, TRPML2 (Homo sapiens, UniProt Q8IZK6).
T1 construct: expressed in transfected cells
T1 sequence (Q8IZK6 1-566): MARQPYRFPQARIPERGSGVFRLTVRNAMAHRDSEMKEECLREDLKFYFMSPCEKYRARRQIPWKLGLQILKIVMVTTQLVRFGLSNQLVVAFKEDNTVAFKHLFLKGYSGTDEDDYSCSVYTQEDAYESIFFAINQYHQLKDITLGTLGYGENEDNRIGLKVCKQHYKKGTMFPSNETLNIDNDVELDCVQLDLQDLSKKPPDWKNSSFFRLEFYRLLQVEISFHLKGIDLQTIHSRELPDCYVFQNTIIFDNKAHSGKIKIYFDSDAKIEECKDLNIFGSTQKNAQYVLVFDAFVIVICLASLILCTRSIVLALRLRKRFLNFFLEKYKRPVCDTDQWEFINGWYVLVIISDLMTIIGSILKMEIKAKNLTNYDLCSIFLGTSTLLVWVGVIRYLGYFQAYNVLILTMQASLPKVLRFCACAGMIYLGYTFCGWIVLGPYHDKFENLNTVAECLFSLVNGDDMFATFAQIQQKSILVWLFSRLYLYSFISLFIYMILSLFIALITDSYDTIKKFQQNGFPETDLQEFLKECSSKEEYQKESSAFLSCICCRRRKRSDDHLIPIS
The assay is described as follows: Fluorescent TRPML2 assay (performed as for TRPML1, substituting the TRPML2 subtype). The essentials: (§1)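 HEK-293 Trex cells with doxycycline-induced (0.5 ug/mL) surface-directed human TRPML subtype, loaded with 1 μM Fluo4-AM, resuspended in Ringer's with 10 mM calcium. Compounds at 20 μM to 6 nM final in half-log steps, triplicate; fluorescence ex 480/em 540; EC50 by non-linear regression versus plate controls.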

The next assay has as its target TRPML1 (Homo sapiens, UniProt Q9GZU1). The assay is described as follows: Fluorescent TRPML1 assay (Fluo4-AM calcium fluorescence in doxycycline-induced HEK-293 Trex cells). The procedure, abridged:
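First, expression of surface-targeted mutant human TRPML1 is induced in HEK-293 Trex cells with 0.5 ug/mL doxycycline the day before. Next, cells take up 1 micromolar Fluo4-AM in Ringer's with 0.1% Pluronic. Finally, they are added to compounds (6 nanomolar–20 micromolar final) in 10 mM calcium Ringer's and fluorescence is read.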

The target in the next assay is T2, TRPML3 (Homo sapiens, UniProt Q8TDD5).
T2 construct: expressed in transfected cells
T2 sequence (Q8TDD5 1-553): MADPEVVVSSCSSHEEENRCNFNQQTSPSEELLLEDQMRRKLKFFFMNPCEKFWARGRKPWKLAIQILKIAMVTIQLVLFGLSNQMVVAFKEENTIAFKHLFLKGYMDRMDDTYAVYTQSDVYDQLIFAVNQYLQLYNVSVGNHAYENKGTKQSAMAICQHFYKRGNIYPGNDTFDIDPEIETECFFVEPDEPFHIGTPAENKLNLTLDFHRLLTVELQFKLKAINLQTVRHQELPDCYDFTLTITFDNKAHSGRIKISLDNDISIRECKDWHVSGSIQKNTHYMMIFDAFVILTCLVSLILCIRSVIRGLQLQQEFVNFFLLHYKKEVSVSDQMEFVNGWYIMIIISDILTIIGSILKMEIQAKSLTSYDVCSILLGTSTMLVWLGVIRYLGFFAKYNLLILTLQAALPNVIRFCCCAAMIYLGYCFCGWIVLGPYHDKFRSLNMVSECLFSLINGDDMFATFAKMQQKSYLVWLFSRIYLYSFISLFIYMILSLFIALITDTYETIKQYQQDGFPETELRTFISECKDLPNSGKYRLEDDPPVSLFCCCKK
Description: Fluorescent TRPML3 assay (performed as for TRPML1, substituting the TRPML3 subtype). The essentials: as §1

TRPML1, sequence (Q9GZU1 whole entry L15A/L16A/L577A/L578A, form open): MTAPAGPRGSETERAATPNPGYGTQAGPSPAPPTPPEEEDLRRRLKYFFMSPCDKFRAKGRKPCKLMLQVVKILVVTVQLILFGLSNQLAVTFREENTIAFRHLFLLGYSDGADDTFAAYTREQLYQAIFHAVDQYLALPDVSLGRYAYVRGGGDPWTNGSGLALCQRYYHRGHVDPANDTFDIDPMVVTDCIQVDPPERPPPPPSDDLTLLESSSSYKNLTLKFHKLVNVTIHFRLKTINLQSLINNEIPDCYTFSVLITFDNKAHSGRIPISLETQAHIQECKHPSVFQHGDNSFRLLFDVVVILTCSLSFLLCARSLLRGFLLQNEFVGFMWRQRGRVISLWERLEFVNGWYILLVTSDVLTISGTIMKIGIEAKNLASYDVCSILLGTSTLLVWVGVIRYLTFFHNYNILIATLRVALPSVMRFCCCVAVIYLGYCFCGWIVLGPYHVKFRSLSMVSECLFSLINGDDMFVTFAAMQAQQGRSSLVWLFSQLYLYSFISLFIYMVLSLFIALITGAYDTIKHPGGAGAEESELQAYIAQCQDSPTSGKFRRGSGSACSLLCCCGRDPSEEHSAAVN

As a reminder, the EC50 is the concentration that produces a half-maximal response. As to `C[C@@H]1CN(c2ncnc3c2c(C2CC2)cn3-c2cccnc2)[C@@H](C)CN1C(=O)OC(C)(C)C` [Compound 168, tert-butyl (2R,5S)-4-(5-cyclopropyl-7-(pyridin-3-yl)-7H-pyrrolo[2,3-d]pyrimidin-4-yl)-2,5-dimethylpiperazine-1-carboxylate], the concentration giving a half-maximal response (EC50) was above 2000 nM at TRPML2, 500 to 2000 nM at TRPML1 and 500 to 2000 nM on TRPML3.

With `C[C@@H]1CN(c2ncnc3c2c(-c2ccccc2)cn3-c2cccnc2)[C@@H](C)CN1C(=O)OC(C)(C)C` [Compound 169, tert-butyl (2R,5S)-2,5-dimethyl-4-(5-phenyl-7-(pyridin-3-yl)-7H-pyrrolo[2,3-d]pyrimidin-4-yl)piperazine-1-carboxylate], the 50% effective concentration (EC50) was 500 to 2000 nM at TRPML2, below 100 nM at TRPML1 and below 100 nM on TRPML3.

For the compound `C[C@H]1CN(C(=O)OC(C)(C)C)CCN1c1ncnc2c1c(-c1ccccc1)cn2-c1cnn(C)c1` [Compound 170, tert-butyl (S)-3-methyl-4-(7-(1-methyl-1H-pyrazol-4-yl)-5-phenyl-7H-pyrrolo[2,3-d]pyrimidin-4-yl)piperazine-1-carboxylate], the EC50 at TRPML2 is 500 to 2000 nM; at TRPML1, 100 to 500 nM; at TRPML3, below 100 nM.

Turning to `CC(C)(C)OC(=O)N1CCN(c2nccc3c2c(-c2ccccc2F)cn3-c2cncnc2)CC1` [Compound 171, tert-butyl 4-(3-(2-fluorophenyl)-1-(pyrimidin-5-yl)-1H-pyrrolo[3,2-c]pyridin-4-yl)piperazine-1-carboxylate], the values for the EC50 on TRPML2, on TRPML1 and at TRPML3 were above 2000 nM, 500 to 2000 nM and above 2000 nM, respectively.

`CC(C)(CF)OC(=O)N1CCN(c2ncnc3c2c(-c2ccccc2F)cn3-c2cccnc2)CC1` [Compound 172, 1-fluoro-2-methylpropan-2-yl 4-(5-(2-fluorophenyl)-7-(pyridin-3-yl)-7H-pyrrolo[2,3-d]pyrimidin-4-yl)piperazine-1-carboxylate]: the 50% effective concentration (EC50) was above 2000 nM on TRPML2, 500 to 2000 nM on TRPML1 and 500 to 2000 nM at TRPML3.

Turning to `CC(C)(CF)OC(=O)N1CCN(c2ncnc3c2c(-c2ccccc2F)cn3-c2cncnc2)CC1` [Compound 173, 1-fluoro-2-methylpropan-2-yl 4-(5-(2-fluorophenyl)-7-(pyrimidin-5-yl)-7H-pyrrolo[2,3-d]pyrimidin-4-yl)piperazine-1-carboxylate], the results for the concentration for a half-maximal effect (EC50) at TRPML2, on TRPML1 and on TRPML3 were above 2000 nM, 500 to 2000 nM and 500 to 2000 nM, respectively.

Consider `C[C@@H]1CN(c2ncnc3c2c(-c2ccccc2F)cn3-c2cnn(C)c2)[C@@H](C)CN1C(=O)OC(C)(C)C` [Compound 176, tert-butyl (2R,5S)-4-(5-(2-fluorophenyl)-7-(1-methyl-1H-pyrazol-4-yl)-7H-pyrrolo[2,3-d]pyrimidin-4-yl)-2,5-dimethylpiperazine-1-carboxylate], for which the half-maximal effective concentration (EC50) on TRPML2 lay within 500 to 2000 nM; on TRPML1, 100 to 500 nM; at TRPML3 it was 100 to 500 nM.

`Cc1cncc(-n2cc(-c3cccnc3)c3c(N4CCN(C(=O)OC(C)(C)C)C[C@@H]4C)ncnc32)c1` [Compound 177, tert-butyl (S)-3-methyl-4-(7-(5-methylpyridin-3-yl)-5-(pyridin-3-yl)-7H-pyrrolo[2,3-d]pyrimidin-4-yl)piperazine-1-carboxylate]: the EC50 on TRPML2 was above 2000 nM; on TRPML1, 500 to 2000 nM; at TRPML3, 500 to 2000 nM.

Regarding `Cc1cncc(-n2cc(-c3cccnc3)c3c(N4C[C@@H](C)N(C(=O)OC(C)(C)C)C[C@@H]4C)ncnc32)c1` [Compound 178, tert-butyl (2R,5S)-2,5-dimethyl-4-(7-(5-methylpyridin-3-yl)-5-(pyridin-3-yl)-7H-pyrrolo[2,3-d]pyrimidin-4-yl)piperazine-1-carboxylate], the results for the EC50 on TRPML2, at TRPML1 and on TRPML3 were above 2000 nM, 100 to 500 nM and 500 to 2000 nM, respectively.

As for `C[C@@H]1CN(c2ncnc3c2c(-c2cccnc2)cn3-c2cncc(C(F)(F)F)c2)[C@@H](C)CN1C(=O)OC(C)(C)C` [Compound 179, tert-butyl (2R,5S)-2,5-dimethyl-4-(5-(pyridin-3-yl)-7-(5-(trifluoromethyl)pyridin-3-yl)-7H-pyrrolo[2,3-d]pyrimidin-4-yl)piperazine-1-carboxylate], the concentration giving a half-maximal response (EC50) at TRPML2 is above 2000 nM; on TRPML1, 500 to 2000 nM; on TRPML3 it was 100 to 500 nM.

Turning to `Cc1nccnc1-c1cn(-c2ccc(F)c(F)c2)c2ncnc(N3C[C@@H](C)N(C(=O)OC(C)(C)C)C[C@@H]3C)c12` [Compound 180, tert-butyl (2R,5S)-4-(7-(3,4-difluorophenyl)-5-(3-methylpyrazin-2-yl)-7H-pyrrolo[2,3-d]pyrimidin-4-yl)-2,5-dimethylpiperazine-1-carboxylate], the EC50 on TRPML2 is 500 to 2000 nM; at TRPML1, 100 to 500 nM; on TRPML3 it was below 100 nM.

`Cc1nccnc1-c1cn(-c2ccc(F)cc2)c2ncnc(N3C[C@@H](C)N(C(=O)OC(C)(C)C)C[C@@H]3C)c12` [Compound 181, tert-butyl (2R,5S)-4-(7-(4-fluorophenyl)-5-(3-methylpyrazin-2-yl)-7H-pyrrolo[2,3-d]pyrimidin-4-yl)-2,5-dimethylpiperazine-1-carboxylate]: the concentration for a half-maximal effect (EC50) at TRPML2 lay within 500 to 2000 nM; on TRPML1 it was 100 to 500 nM; on TRPML3, 100 to 500 nM.

For the compound `Cc1nccnc1-c1cn(-c2ccccc2)c2ncnc(N3C[C@@H](C)N(C(=O)OC(C)(C)C)C[C@@H]3C)c12` [Compound 182, tert-butyl (2R,5S)-2,5-dimethyl-4-(5-(3-methylpyrazin-2-yl)-7-phenyl-7H-pyrrolo[2,3-d]pyrimidin-4-yl)piperazine-1-carboxylate], the concentration giving a half-maximal response (EC50) is above 2000 nM on TRPML2, 500 to 2000 nM at TRPML1 and 500 to 2000 nM on TRPML3.

With `C[C@H]1CN(C(=O)OC(C)(C)C(F)(F)F)CCN1c1ncnc2c1c(-c1ccccc1)cn2-c1cnn(C)c1` [Compound 183, 1,1,1-trifluoro-2-methylpropan-2-yl(S)-3-methyl-4-(7-(1-methyl-1H-pyrazol-4-yl)-5-phenyl-7H-pyrrolo[2,3-d]pyrimidin-4-yl)piperazine-1-carboxylate], the results for the EC50 at TRPML2, on TRPML1 and at TRPML3 were 500 to 2000 nM, 100 to 500 nM and 100 to 500 nM, respectively.

For `Cc1nccnc1-c1cn(-c2ccc(Cl)cc2)c2ncnc(N3C[C@@H](C)N(C(=O)OC(C)(C)C)C[C@@H]3C)c12` [Compound 184, tert-butyl (2R,5S)-4-(7-(4-chlorophenyl)-5-(3-methylpyrazin-2-yl)-7H-pyrrolo[2,3-d]pyrimidin-4-yl)-2,5-dimethylpiperazine-1-carboxylate], the concentration for a half-maximal effect (EC50) lay in the range of 500 to 2000 nM at TRPML2, 100 to 500 nM at TRPML1 and 100 to 500 nM on TRPML3.

Regarding `C[C@@H]1CN(c2ncnc3c2c(-c2ccccc2F)cn3-c2cnn(C)c2)[C@@H](C)CN1C(=O)OC(C)(C)CF` [Compound 185, 1-fluoro-2-methylpropan-2-yl (2R,5S)-4-(5-(2-fluorophenyl)-7-(1-methyl-1H-pyrazol-4-yl)-7H-pyrrolo[2,3-d]pyrimidin-4-yl)-2,5-dimethylpiperazine-1-carboxylate], the EC50 was 500 to 2000 nM on TRPML2, below 100 nM at TRPML1 and below 100 nM on TRPML3.
